Tests used:
Format in all cases: cell-based, rat
splenocytes = assay: 2-DE (Two-in-one gel) / MALDI-TOF MS analysis of differential protein expression in splenocyte lysates
Protocol: Rats were placed under deep ether anesthesia and exsanguinated via the abdominal aorta. Spleen was removed by aseptic techniques before washed twice in 10 mL of RPMI-1640 (Gibco, U.S.A.) medium containing 1000 U/mL penicillin-streptomycin (PS) (Gibco, U.S.A.). Spleens were then cut into small pieces before being sucked up and down with a plunger in a plastic syringe. Single cell suspension was prepared and placed into the same medium containing 1000 U/mL PS, and 5% acid citric dextrose. Splenocytes were then isolated by gradient centrifugation by layering the single cell suspension onto Ficoll-Paque Plus gradient (Amersham Bioscience, H.K. Ltd.) and spun at 400 g for 35 minutes at room temperature. The splenocytes-containing fraction was collected. Erythrocytes were lyzed by adding four volumes of ice-cold ammonium chloride solution (pH 7.4) at room temperature for 5 minutes and splenocytes were washed twice in plain medium. Lymphocytes were stained with Wright-Giema stain before examination under light microscope. Cell viability and number were examined after trypan blue staining under the light microscope. Splenocytes (1×10^6) were cultured in complete RPMI-1640 medium containing 1000 U/mL PS, supplemented with 2 g/L sodium carbonate. Cells were re-suspended in the same medium with 10% FCS (Gibco, U.S.A.) and subjected to various treatments after 24 hours incubation.
Rg1 (dosage of 5 μg/mL) was added to splenocytes in PBS buffer in 6-well flat-bottomed plates (Nunc Maxisorp, U.S.A.) in a 5% CO2 incubator at 37° C. Samples of conditioned media from the incubation mixture were harvested at varying time points (from 12-72 hours). These samples were kept at −80° C. until use. No sample was kept for more than 2 months. Besides Western Blotting, global protein expression in samples of Rg1 treated splenocytes (at 12 hours and 24 hours intervals) were also performed using 2-DE analysis. Cells incubated with PBS for 24 hours were used as control.
Splenocytes on culture dishes were rinsed once with RPMI-1640 after incubation with or without Rg1. Subsequently, […] trypsin containing 0.2 g/L EDTA was added and allowed to incubate for 3 min. Cells were then collected by centrifugation at 1,000 g for 5 minutes and washed with PBS (pH 7.2) twice. Splenocytes were then lysed with a minimal amount of lysis buffer (usually 200 μl) containing 4% Triton X-100, 9 M urea, and 1 mM PMSF for 10 minutes on ice. The supernatant was collected by centrifugation at 3,000 g for 10 minutes and protein contents were measured by a modified Bradford method using a protein assay kit by Bio-Rad Laboratories, U.S.A. Cell lysates from different animals with the same treatment were pooled together at a protein ratio of 1:1 and was used for 2-DE analysis. 120 μg of splenocytes lysate [in a buffer containing 9M Urea, 2% w/v Triton X-100, 0.5% w/v DDT (Sigma, U.S.A.), 0.4% v/v IPG buffer 4-7 (Amersham Pharmacia Biotech, Uppsala, Sweden) and trace amount of bromophenol blue to a final volume of 300 μl] was used for in-gel sample rehydration.
Samples were applied onto IPG strips pH 4-7 (3×170 mm, Bio-Rad Laboratories, U.S.A.). Rehydration and subsequent isoelectric focusing was performed using either a Protean IEF Cell (Bio-Rad Laboratories, U.S.A.) or an IPGphor (Amersham Biosciences, U.S.A.). Rehydration was performed at room temperature for 16 hour at 50 V in the IPG strip holder covered with low viscosity paraffin oil. Isoelectric focusing was then performed using 500 V (1 hour), 1000 V (1 hour), 4000 V (2 hour) and 8000 V (2 hour) sequentially. Strips were then equilibrated in […] Tris-HCl equilibration buffer, pH 6.8, containing 1% (w/v) DTT (Sigma, U.S.A.), 9M urea, 30% v/v glycerol, 2% w/v SDS and a trace amount of bromophenol blue for 10 minutes. […]

IFN-γ [1] = assay: Western blotting of IFN-γ secretion in culture medium of Rg1-stimulated splenocytes; details: 5 μg/ml Rg1, culture medium, 24 hour
Protocol: (§1) Rats were placed under deep ether anesthesia and exsanguinated via the abdominal aorta. Spleen was removed by aseptic techniques before washed twice in 10 mL of RPMI-1640 (Gibco, U.S.A.) medium containing 1000 U/mL penicillin-streptomycin (PS) (Gibco, U.S.A.). Spleens were then cut into small pieces before being sucked up and down with a plunger in a plastic syringe. Single cell suspension was prepared and placed into the same medium containing 1000 U/mL PS, and 5% acid citric dextrose. Splenocytes were then isolated by gradient centrifugation by layering the single cell suspension onto Ficoll-Paque Plus gradient (Amersham Bioscience, H.K. Ltd.) and spun at 400 g for 35 minutes at room temperature. The splenocytes-containing fraction was collected. […]
(§2) Supernatants of splenocytes cell culture with and without Rg1 incubation were harvested at different time points and used for the detection of TNF-α and IFN-γ. […] The protein content of the supernatant/lysate was determined by the Bradford method (Bio-Rad Laboratory, U.S.A.). For each analysis, 350 μg of protein was analyzed by a 12.5% reducing SDS-PAGE gel ran at a constant voltage (150V) for 1 hour. […] Positive binding was detected using the SuperSignal West Pico Chemiluminescent Kit (Pierce, U.S.A.) and the exposed X-ray films (Kodak) were scanned with a Molecular Dynamics Densitometer (Bio-Rad Laboratories, U.S.A.).

TNF-α [2] = assay: ELISA of TNF-α secretion from splenocytes with and without Rg1
Protocol: as §1, with “collected. Erythrocytes were lyzed by adding four volumes of ice-cold ammonium chloride solution (pH 7.4) at room temperature for 5 minutes and splenocytes were washed twice in plain medium.” for “collected.”
(§3) IFN-γ as well as TNF-α ELISA assays were performed using the OptiEIATM rat IFN-γ and TNF-α kits (Pharmigen, U.S.A.). […] After the addition of avidin-HRP conjugate, color was developed by the addition of 2,2-Azin-bis-3-thylbenzthiazoline-6-sulfonic acid and the color change was monitored at an absorbance of 405 nm with a Microplate Reader (Bio-Rad Laboratories, U.S.A.) The amount of INF-γ and TNF-α were calculated by comparing with the standard.

iNOS = assay: Western blotting of iNOS expression in splenocyte lysate after Rg1 stimulation; details: 5 μg/ml Rg1, splenocyte lysate
Protocol: as §1, §2

TNF-α [3] = assay: Western blotting of TNF-α secretion in culture medium of Rg1-stimulated splenocytes; details: 5 μg/ml Rg1, culture medium
Protocol: as §1, §2

IFN-γ [4] = assay: ELISA of IFN-γ secretion from splenocytes with and without Rg1
Protocol: as §1, with “collected. Erythrocytes were lyzed by adding four volumes of ice-cold ammonium chloride solution (pH 7.4) at room temperature for 5 minutes and splenocytes were washed twice in plain medium.” for “collected.”
as §3

[5] = Rg1 24 hours versus PBS control
[6] = Rg1 treated versus normal sample, Two-in-one gels
[7] = 5 μg/mL Rg1, ELISA time course 12-72 hours
[8] = 5 μg/mL Rg1, ELISA, versus splenocytes without Rg1

Regulation of Alpha-mannosidase II (spot 6) (splenocytes; [5]): Up- | Regulation of Cytochrome C oxidase polypeptide IV precursor (spot 2) (splenocytes; [5]): Up- | Regulation of DNA polymerase beta (spot 3) (splenocytes; [5]): Up- | Regulation of Guanine nucleotide-binding protein G (spot 4) (splenocytes; [5]): Up-
Compound: CC(C)=CCC[C@](C)(O[C@@H]1O[C@H](CO)[C@@H](O)[C@H](O)[C@H]1O)[C@H]1CC[C@]2(C)[C@@H]1[C@H](O)C[C@@H]1[C@@]3(C)CC[C@H](O)C(C)(C)[C@@H]3[C@@H](O[C@@H]3O[C@H](CO)[C@@H](O)[C@H](O)[C@H]3O)C[C@]12C [Rg1]
number of protein spots detected on the gel half run with the Rg1 treated sample (splenocytes; 24 hours incubation with Rg1, about 102 spots in normal sample): 122 | Regulation of Homeotic protein LH-2 (spot 1) (splenocytes; [5]): Up- | Regulation of T-cell surface glycoprotein CD5 precursor (spot 5) (splenocytes; [5]): Up- | number of protein spots down-regulated (splenocytes; [6]): 38 | number of proteins up-regulated (splenocytes; [6]): 87 | number of spots without significant apparent changes (splenocytes; [6]): 38 | IFN-γ detection by Western blotting (IFN-γ [1]): detected | incubation time at which TNF-α level reached a maximum (TNF-α [2]; [7]): 24 h | increase in quantity of TNF-α after Rg1 induction (TNF-α [2]; [8]): more than 1000 fold | iNOS detection by Western blotting (iNOS; 12 hour): detected | iNOS detection by Western blotting (iNOS; 24 hour): detected | TNF-α detection by Western blotting (TNF-α [3]; 24 hour): detected | TNF-α detection by Western blotting (TNF-α [3]; 48 hour): detected | incubation time at which IFN-γ level reached a maximum (IFN-γ [4]; [7]): 24 h | increase in quantity of IFN-γ after Rg1 induction (IFN-γ [4]; [8]): more than 1000 fold
